Test results published in patent US7915198B2, “Aqueous solution of non-colloidal silicic acid and boric acid” (Sabalo, N.V., priority 2002, dated 2011).

Tests used:
[1] = system: potato plants (strain Bintje)
Procedure: (§1) Solutions of boric acid in water were prepared containing different concentrations of boric acid: 1%, 0.1%, 0.03%, 0.01%, 0.005%, 0.0003% and 0.0001% (W/V). Sodium silicate (10% Si) was diluted tenfold in water and further 1000 times diluted in the solutions or in water with pH 4.5 after dilution, resulting in a final silicon concentration of 0.0010 wt. % (or 10 μg/ml Si)
(§2) All solutions were filtered on a 0.1μ membrane filter. […] The solutions were used instantaneously. A potato garden was used to test the compounds against infection with Phytophthora infestan: 20 m^2 culture were used for testing and each m^2 contained 6 potato plants (strain Bintje) of two months old. Two times a week plant leaves were sprayed with the different solutions (about 10 liters/are). Four square meters were used as placebo.

[2] = system: Phytophthora infestan; type: in vivo, potato plants (strain Bintje)
Procedure: as §1, §2

OB(O)O [boric acid]
toxic reactions (necrotic effects on leaves such as black spots, holes) ([1]; 1%, 0.1% and 0.03% boric acid, after 1 week treatment): toxic reactions | strength of plant leaves ([1]; From 0.003% boric acid on): plant leaves were stronger | antifungal effect ([2]; 1%, 0.1% and 0.03% boric acid): no antifungal effect | fungal infection ([2]; From 0.003% boric acid on): fungal infection decreased
